Among the data in patent publication US6531496B1 (Bayer Aktiengesellschaft, priority 1999, dated 2003) are logP and chromatographic logP values, retold here.

One data set is described as follows: logP by HPLC (EEC Directive 79/831 Annex V. A8, gradient method). The conditions noted are these: HPLC, gradient method, acetonitrile/0.1% aqueous phosphoric acid; Table 1. Format: physicochemical.
One may read the logP as the decadic logarithm of the partition coefficient of the neutral form, usually between octanol and water. In turn, `CCS(=O)(=O)c1ccc(OC2=NS(=O)(=O)CS2)cc1` [Example 59] yielded a logP of 1.54.
Still for that read-out and setting: for `CCON=C(C)c1ccc(OC2=NS(=O)(=O)CS2)c(C)c1` [Example 17] the value was 3.32; for `Cc1cc(S(=O)(=O)c2ccccc2)cc(Cl)c1OC1=NS(=O)(=O)CS1` [Example 120], 2.83.
On the same count and under the same terms, under `Cc1nc(Sc2ccc(OC3=NS(=O)(=O)CS3)cc2)sc1C` [Example 62] stands 2.91.
With `CCCCc1oc2ccccc2c1C(=O)c1ccc(OC2=NS(=O)(=O)CS2)cc1` [Example 71], the logP is 4.28.
The same measure, in the same setting: under `O=[N+]([O-])c1ccc(Oc2ccc(OC3=NS(=O)(=O)CS3)cc2)c(Cl)c1` [Example 126] stands 3.33.
The same measure, in the same setting: for `CC(=O)c1cc(OC2=NS(=O)(=O)CS2)cc([N+](=O)[O-])c1` [Example 74] the value was 1.95; for `CC(C)n1nc(-c2ccc(OC3=NS(=O)(=O)CS3)cc2)ccc1=O` [Example 19], 2.15.
Still for that read-out and setting: under `COc1ccccc1OC1=NS(=O)(=O)CS1` [Example 136] stands 2.02; under `O=S1(=O)CSC(Oc2ccc(S(=O)(=O)c3ccc(Cl)cc3)cc2)=N1` [Example 83], 2.72.
For `O=C(Cc1ccccc1)c1ccc(OC2=NS(=O)(=O)CS2)cc1` [Example 65], the logP is on record as 2.76.
Still for that read-out and setting: under `COc1cc(OC2=NS(=O)(=O)CS2)ccc1C(C)=O` [Example 58] stands 1.88.
On the same count and under the same terms, under `COC(=O)c1ccc(OC2=NS(=O)(=O)CS2)cc1C(=O)OC` [Example 32] stands 1.93.
Same read-out and setting: under `CC(O)c1cccc(OC2=NS(=O)(=O)CS2)c1` (racemic) [Example 80] stands 1.48; under `O=S1(=O)CSC(Oc2cccc(CCO)c2)=N1` [Example 90], 1.39; under `O=S1(=O)CSC(Oc2ccc(N=Nc3ccccc3)cc2Cl)=N1` [Example 48], 3.96.
`O=S1(=O)CSC(Oc2cccc(OCCO)c2)=N1` [Example 91] showed a logP of 1.37.
Same read-out and setting: under `CC(=Cc1cccc(OC2=NS(=O)(=O)CS2)c1)[N+](=O)[O-]` (mixture of isomers) [Example 89] stands 2.46; under `O=S1(=O)CSC(Oc2cccc(OC(F)(F)F)c2)=N1` [Example 134], 2.35.
Still for that read-out and setting: under `COC(=O)c1ccc(N=Cc2cccc(OC3=NS(=O)(=O)CS3)c2)cc1` [Example 76] stands 1.61; under `O=S1(=O)CSC(Oc2cccc(C(F)(F)F)c2)=N1` [Example 113], 2.62.
The same measure, in the same setting: under `Cc1cc(OC2=NS(=O)(=O)CS2)ccc1Sc1ccc([N+](=O)[O-])cc1C` [Example 84] stands 3.94; under `CC(C)Oc1ccccc1OC1=NS(=O)(=O)CS1` [Example 129], 2.7; under `CCN(CC)C(=O)c1ccc(OC2=NS(=O)(=O)CS2)c(NC)c1` [Example 64], 2.
In turn, `C=CCON=C(C)c1ccc(OC2=NS(=O)(=O)CS2)cc1` [Example 23] showed a logP of 3.15.
As for `O=C(C=Cc1ccccc1)c1ccccc1OC1=NS(=O)(=O)CS1` [Example 130], the logP came to 2.91.
Still for that read-out and setting: for `CON=C(C)c1ccc(OC2=NS(=O)(=O)CS2)c(C)c1` [Example 16] the value was 2.88.
Still for that read-out and setting: for `CCOC(=O)NN=C(C)c1ccc(OC2=NS(=O)(=O)CS2)cc1` [Example 72] the value was 1.86; for `N#Cc1cccc(OC2=NS(=O)(=O)CS2)c1` [Example 109], 1.69.
Same read-out and setting: under `CSc1nnc(C(C)(C)C)c(=O)n1N=Cc1cccc(OC2=NS(=O)(=O)CS2)c1` [Example 69] stands 3.43.
In the case of `N#CSCC(=O)c1ccc(OC2=NS(=O)(=O)CS2)cc1` [Example 55], the logP came to 2.01.
Still for that read-out and setting: under `CN(C)N=Cc1ccc(OC2=NS(=O)(=O)CS2)cc1` [Example 61] stands 2.16; under `O=S1(=O)CSC(Oc2ccc(-c3nc4ccccc4o3)cc2)=N1` [Example 45], 2.88.
Same read-out and setting: for `CON=C(C(=O)NOCc1ccccc1)c1ccccc1OC1=NS(=O)(=O)CS1` [Example 10] the value was 2.18; for `O=[N+]([O-])c1ccc(/C=C/c2ccc(OC3=NS(=O)(=O)CS3)cc2)cc1` [Example 50], 3.3; for `O=S1(=O)CSC(Oc2ccccc2C(F)(F)F)=N1` [Example 131], 2.49.
The same measure, in the same setting: for `COC=C(C(=O)OC)c1ccccc1OC1=NS(=O)(=O)CS1` [Example 5] the value was 2.03; for `COC(=O)c1ccc(N=Cc2ccc(OC3=NS(=O)(=O)CS3)cc2)cc1` [Example 68], 1.59; for `CC(=NOCc1ccccc1)c1ccc(OC2=NS(=O)(=O)CS2)c(C)c1` [Example 18], 3.92.
Take `CN=Cc1ccc(OC2=NS(=O)(=O)CS2)cc1` [Example 53]: the logP is on record as 2.33.
On the same count and under the same terms, for `O=S1(=O)CSC(Oc2ccc(-c3nnco3)cc2)=N1` [Example 35] the value was 1.36; for `COC(=O)Nc1ccc(C=Cc2cccc(OC3=NS(=O)(=O)CS3)c2)c(NC(=O)OC)c1` [Example 49], 2.43; for `O=S1(=O)CSC(Oc2ccc(F)cc2)=N1` [Example 112], 2.04.
Consider `CON=C(C(=O)NCc1ccccc1)c1ccccc1OC1=NS(=O)(=O)CS1` [Example 9], for which the log partition coefficient (logP) was found to be 2.13. This logP and that of the molecule before are within 0.2 log units of each other.
Still for that read-out and setting: for `Cc1ccc(C)c(OC2=NS(=O)(=O)CS2)c1` [Example 125] the value was 2.63; for `O=S1(=O)CSC(Oc2cccc(CO)c2)=N1` [Example 46], 1.23; for `CCCCCC(O)c1cccc(OC2=NS(=O)(=O)CS2)c1` (racemic) [Example 82], 2.87.
`O=[N+]([O-])c1ccc(Sc2ccc(OC3=NS(=O)(=O)CS3)cc2)cc1` [Example 121]: the logP was 3.28.
Consider `COc1cc(Cl)cc(OC2=NS(=O)(=O)CS2)c1` [Example 116], for which the logP is 2.61.
On the same count and under the same terms, under `CCC(=O)c1ccccc1OC1=NS(=O)(=O)CS1` [Example 57] stands 2.04; under `Cc1cnc(Sc2ccc(OC3=NS(=O)(=O)CS3)cc2)nc1C` [Example 63], 2.55; under `O=C(C=Cc1ccccc1)c1ccc(OC2=NS(=O)(=O)CS2)cc1` [Example 67], 3.06.
The same measure, in the same setting: for `O=S1(=O)CSC(Oc2ccc(C3=Nc4ccccc4SC(c4ccccc4)C3)cc2)=N1` (centres unmarked) [Example 73] the value was 4.19; for `Cc1cc(OC2=NS(=O)(=O)CS2)ccc1SC(F)(F)F` [Example 52], 3.39; for `CC(C)(C)ON=C(c1ccccc1)c1cccc(OC2=NS(=O)(=O)CS2)c1` [Example 43], 4.4.
Still for that read-out and setting: under `CC(C)(C)c1cc(OC2=NS(=O)(=O)CS2)ccc1O` [Example 34] stands 2.66; under `O=S1(=O)CSC(Oc2ccc(C(F)(F)F)cc2)=N1` [Example 132], 2.64; under `O=S1(=O)CSC(Oc2cccc(C(=NOCc3ccccc3)c3ccccc3)c2)=N1` [Example 44], 4.15.
The molecule `COc1ccc(C(=O)c2ccc(OC3=NS(=O)(=O)CS3)cc2)cc1` [Example 66] yielded a logP of 2.67.
Take `O=S1(=O)CSC(Oc2ccc(Br)cc2)=N1` [Example 122]: the logP was 2.52.
On the same count and under the same terms, under `CON=C(C(N)=O)c1ccccc1OC1=NS(=O)(=O)CS1` [Example 11] stands 1.33; under `CON=C(C)c1cc(OC2=NS(=O)(=O)CS2)ccc1OC1=NS(=O)(=O)CS1` [Example 30], 2.43.
On the same count and under the same terms, under `CSc1ccc(OC2=NS(=O)(=O)CS2)cc1C` [Example 54] stands 2.75.

The data set is the same for the next values; noted with them: Table 2.
Broadly, the chromatographic logP is a lipophilicity value derived from retention on a column. The low end stands for lower lipophilicity, the high end for higher lipophilicity. Molecule `O=S1(=O)CSC(Oc2ccc3[nH]ccc3c2)=N1` [Example 155] had a chromatographic logP of 1.86.
The same measure, in the same setting: under `CC1(C)Oc2cccc(OC3=NS(=O)(=O)CS3)c2O1` [Example 150] stands 2.6.
Same read-out and setting: under `O=c1c2ccccc2oc2cc(OC3=NS(=O)(=O)CS3)ccc12` [Example 152] stands 2.52; under `Cc1c(C(=O)O)c2cc(OC3=NS(=O)(=O)CS3)ccc2n1C` [Example 144], 2.65.
Still for that read-out and setting: under `O=S1(=O)CSC(Oc2ccc3c(c2)OCO3)=N1` [Example 142] stands 1.9; under `CN1C(=O)Nc2cc(OC3=NS(=O)(=O)CS3)ccc2SC1=O` [Example 149], 1.55.
The molecule `O=S1(=O)CSC(Oc2cccc3sc4ccccc4c23)=N1` [Example 153] had a chromatographic logP of 3.31.
On the same count and under the same terms, for `Cc1nc2cc(OC3=NS(=O)(=O)CS3)ccc2s1` [Example 148] the value was 1.92; for `O=C1Cc2cc(OC3=NS(=O)(=O)CS3)ccc2O1` [Example 143], 0.48; for `COC(=O)/C(C#N)=C1/Oc2ccc(OC3=NS(=O)(=O)CS3)cc2S1` [Example 151], 2.31.
On the same count and under the same terms, for `O=S1(=O)CSC(Oc2ccc3c(c2)CCC3)=N1` [Example 157] the value was 2.8.
The molecule `COC(=O)c1c(-c2ccc(-c3ccccc3)cc2)oc2ccc(OC3=NS(=O)(=O)CS3)cc12` [Example 146] registered a chromatographic logP of 3.43.
Still for that read-out and setting: under `O=c1oc2cc(OC3=NS(=O)(=O)CS3)ccc2cc1-c1ccccc1` [Example 147] stands 2.77; under `O=S1(=O)CSC(Oc2ccc3c(c2)Nc2ccccc2S3(=O)=O)=N1` [Example 154], 1.93.

Still in this data set, the particulars now being: Table 3, intermediates of formula (II-a).
Regarding `O=S1(=O)CC(c2ccccc2)SC(Cl)=N1` (centres unmarked) [II-a-1], the chromatographic logP was determined as 2.63.

Staying with this data set, now noted: Table 4, starting materials of formula (IV).
`CSC1=NS(=O)(=O)C(C(C)C)S1` (centres unmarked) [IV-4]: the chromatographic logP came out at 2.8.
Same read-out and setting: under `CSC1=NS(=O)(=O)CC(C)(c2ccccc2)S1` (centres unmarked) [IV-5] stands 2.65.

Still in this data set, the particulars now being: gradient of acetonitrile/0.1% aqueous phosphoric acid; HPLC, gradient method, acetonitrile/0.1% aqueous phosphoric acid; Table 1.
With `CC(C)(CCl)C(=O)Nc1ccc(OC2=NS(=O)(=O)CS2)c(Cl)c1Cl` [Example 13], the chromatographic logP was 2.98.
Same read-out and setting: under `CO/N=C(/C)c1cccc(OC2=NS(=O)(=O)CS2)c1` [Example 26] stands 2.65; under `Cc1ccc(OC2=NS(=O)(=O)CS2)c(C)c1` [Example 127], 2.65.
